Results from US20150225303A1, “IRON-ESSENTIAL FOR FLORA AND FAUNA” (priority 2012, published 2015).

Assays:
[1] = prior art statement; cited from earlier work
maize crop = assay: Field experiment in maize crop, foliar application; format: in vivo; settings: for Stem girth R1 / Cobs yield R1 / No. of cobs R1 / Seed yield R1: replicate R1; for Cobs yield MEAN / No. of cobs MEAN / Seed yield MEAN / Stem girth MEAN: mean of R1-R3; for Cobs yield R3 / No. of cobs R3 / Seed yield R3 / Stem girth R3: replicate R3
Description: Field experiments in maize crop were conducted using the composition of the present invention at Maize Research Centre, Hyderabad during kharif 2009. […] GRIP (Fe HEDP)-15% […]+27% P2O5-1 g/l of water • […] of water • […] of water • T 5: Fe EDTA-12%-1 g/l of water • T 6: […] Control (Only recommended Fertilizer dose) For all the six treatments, the composition of the present invention was used along with the recommended fertilizer dose (180-60-60 kg N-P2O5-K2O/ha). The composition of the present invention (Fe-HEDP) was applied at three stages 20, 40 and 60 days after sowing. The crops were harvested in the month of November i.e. four months after sowing.

[2] = treatment level 2 (2 g/l of water; GRIP T2 printed as 1 g/l)

O=C([O-])C(NCCNC(C(=O)[O-])c1ccccc1[O-])c1ccccc1[O-].[Fe+3] (centres unmarked) [Fe-EDDHA, Fe-ethylene diamine-N,N′-bis (2-hydroxyphenylacetic acid)]
pH level up to which the chelate is stable [1]: up to 11.0

O=C([O-])CN(CCN(CC(=O)[O-])CC(=O)[O-])CC(=O)[O-].[Fe+3] [Fe EDTA, Fe-Ethylene diamine tetra acetic acid]
Stem girth R1 (maize crop; 1 g/l of water, applied 20, 40 and 60 days after sowing): 6.6 cm
Cobs yield MEAN (maize crop; 1 g/l of water): 7516.67 kg/ha
No. of cobs MEAN (maize crop; 1 g/l of water): 40.17 ′000 ha
Seed yield MEAN (maize crop; 1 g/l of water): 5777.67 kg/ha
Stem girth MEAN (maize crop; 1 g/l of water): 6.53 cm
Cobs yield R1 (maize crop; 1 g/l of water): 6205 kg/ha
No. of cobs R1 (maize crop; 1 g/l of water): 38.8 ′000 ha
Seed yield R1 (maize crop; 1 g/l of water): 5022.0 kg/ha
Cobs yield R3 (maize crop; 1 g/l of water): 8490 kg/ha
No. of cobs R3 (maize crop; 1 g/l of water): 41.2 ′000 ha
Seed yield R3 (maize crop; 1 g/l of water): 6448.0 kg/ha
Stem girth R3 (maize crop; 1 g/l of water): 6.6 cm
Cobs yield MEAN (maize crop; [2]): 7875.00 kg/ha
No. of cobs MEAN (maize crop; [2]): 37.8 ′000 ha
Seed yield MEAN (maize crop; [2]): 5888.00 kg/ha
Stem girth MEAN (maize crop; [2]): 6.43 cm
Cobs yield R1 (maize crop; [2]): 6935 kg/ha
No. of cobs R1 (maize crop; [2]): 35.6 ′000 ha
Seed yield R1 (maize crop; [2]): 4355.0 kg/ha
Stem girth R1 (maize crop; [2]): 6.5 cm
Cobs yield R3 (maize crop; [2]): 8200 kg/ha
No. of cobs R3 (maize crop; [2]): 41.0 ′000 ha
Seed yield R3 (maize crop; [2]): 7633.0 kg/ha
Stem girth R3 (maize crop; [2]): 6.1 cm

O=C([O-])CN(CCN(CC(=O)[O-])CC(=O)[O-])CCN(CC(=O)[O-])CC(=O)[O-].[Fe+3] [Fe-DTPA, Fe-Diethylene triamine penta acetic acid]
pH level up to which the chelate is stable [1]: up to 7.0
